Measurements: US20240059703A1 (AMGEN INC., priority 2021, published 2024)
Read-outs that look alike come from different tables or passages of the source.

What was measured:
KRAS G12C = KRAS G12C (Homo sapiens (Human), UniProt P01116, C118A/G12C); assay: 2 h coupled exchange assay; type: biochemical
Description: The term “2 h coupled exchange assay” or “20 h coupled exchange assay” as used herein refers to the assay described in the Section entitled “BIOLOGICAL EVALUATION.”

[1] = system: MIA PaCa-2 (human pancreatic carcinoma) cells; assay: Cell Viability Assay (CellTiter-Glo), MIA PaCa-2; type: cell-based
Description: Serially-diluted compound or DMSO was added to the cells, and plates were incubated at 37° C., 5% CO2 for 72 h. Cell viability was measured using a CellTiter-Glo® Luminescent Cell Viability Assay kit (Promega) according to the manufacturer's protocol. The luminescence signal of treated samples was normalized to DMSO control, and data were analyzed using a 4-parameter logistic model to calculate IC50 values.

[2] = system: A549 (human lung carcinoma) cells; assay: Cell Viability Assay (CellTiter-Glo), A549; type: cell-based
How it was run: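 RPMI 1640/10% FBS; seed 1.67E+04 cells/mL, o/n 37° C., 5% CO2; serial-dilution cmpd 72 h; CellTiter-Glo luminescence vs DMSO; 4-parameter logistic fit → IC50.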

[3] = Avg 2 h Coupled exchange IC50, 2 h compound pre-incubation, SOS-mediated nucleotide exchange
[4] = Avg 2 h Coupled exchange IC50, 2 h compound pre-incubation

Chain of KRAS G12C (P01116 other isoform, or with tags, fused parts or gaps G12C/C118A): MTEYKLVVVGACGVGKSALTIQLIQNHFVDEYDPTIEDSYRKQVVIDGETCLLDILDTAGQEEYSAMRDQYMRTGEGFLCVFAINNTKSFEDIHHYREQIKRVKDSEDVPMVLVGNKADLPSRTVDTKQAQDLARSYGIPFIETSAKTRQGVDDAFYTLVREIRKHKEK

IC50 (KRAS G12C; [3]) [nM]	IC50 ([1]; Homo sapiens, MIA PaCa-2, 72 h) [nM]	IC50 ([2]; Homo sapiens, A549, 72 h) [nM]	IC50 (KRAS G12C; [4]) [nM]	IC50 (KRAS G12C; read-out: Avg 2 h Coupled exchange IC50, 2 h compound pre-incubation) [nM]	IC50 ([1]; 72 h) [nM]	IC50 ([2]; 72 h) [nM]	SMILES
66	462	> 5000					C=CC(=O)N1CC2(CCN(c3nc4c(c(-c5c(C)ccc6[nH]ncc56)c3C#N)C3CC3C4)C2)C1 (stereo not drawn) [Example 13-82]
	637	> 5000	53				C=CC(=O)N1CC2(CCN(c3nc4c(c(-c5ccccc5C)c3C#N)CCC(c3scnc3C)=C4)C2)C1 [Example 23-11, 4-(2-methylphenyl)-7-(4-methyl-1,3-thiazol-5-yl)-2-(2-(2-propenoyl)-2,6-diazaspiro[3.4]octan-6-yl)-5,6-dihydro-3-quinolinecarbonitrile]
	174	> 5000	167				C=CC(=O)N1CC2(CCN(c3nc4c(c(-c5cc(O)ccc5Cl)c3C)CCN(C3CCCN(C)C3)C4)C2)C1 [Example 18-11, 1-(6-(4-(2-chloro-5-hydroxyphenyl)-3-methyl-7-((3R)-1-methyl-3-piperidinyl)-5,6,7,8-tetrahydro-1,7-naphthyridin-2-yl)-2,6-diazaspiro[3.4]octan-2-yl)-2-propen-1-one|1-(6-(4-(2-chloro-5-hydroxyphenyl)-3-methyl-7-((3S)-1-methyl-3-piperidinyl)-5,6,7,8-tetrahydro-1,7-naphthyridin-2-yl)-2,6-diazaspiro[3.4]octan-2-yl)-2-propen-1-one]
	1070	> 5000	33				C=CC(=O)N1CC2(CCN(c3nc4c(c(-c5cc(O)ccc5Cl)c3C#N)CCC(c3scnc3C)=C4)C2)C1 [Example 23-45, 4-(2-chloro-5-hydroxyphenyl)-7-(4-methyl-1,3-thiazol-5-yl)-2-(2-(2-propenoyl)-2,6-diazaspiro[3.4]octan-6-yl)-5,6-dihydro-3-quinolinecarbonitrile]
290	1390	4940					C=CC(=O)N1CC2(CCN(c3nc4c(F)cccc4c(-c4c(C)ccc5[nH]ncc45)c3C#N)C2)C1 [Example 1-4, 8-fluoro-4-(5-methyl-1H-indazol-4-yl)-2-(2-(2-propenoyl)-2,6-diazaspiro[3.4]octan-6-yl)-3-quinolinecarbonitrile]
124	947	> 5000					C=CC(=O)N1CC2(CCN(c3nc4c(c(-c5c(C)ccc6[nH]ncc56)c3C#N)COC4(C)C)C2)C1 [Example 13-100, 2-(2-acryloyl-2,6-diazaspiro[3.4]octan-6-yl)-7,7-dimethyl-4-(5-methyl-1H-indazol-4-yl)-5,7-dihydrofuro[3,4-b]pyridine-3-carbonitrile]
	1750	6850	162				C=CC(=O)N1CC2(CCN(c3nc4cc(-c5scnc5C)ccc4c(-c4ccccc4O)c3C#N)C2)C1 [Example 20-20, 4-(2-hydroxyphenyl)-7-(4-methyl-1,3-thiazol-5-yl)-2-(2-(2-propenoyl)-2,6-diazaspiro[3.4]octan-6-yl)-3-quinolinecarbonitrile]
	12	> 5000	17				C=CC(=O)N1CC2(CCN(c3nc4c(c(-c5cccc6cc(O)ccc56)c3C)CCN(C(C)C)C4)C2)C1 (single isomer, unassigned) [Example 18-4, (P)-1-(6-(4-(6-hydroxy-1-naphthalenyl)-3-methyl-7-(2-propanyl)-5,6,7,8-tetrahydro-1,7-naphthyridin-2-yl)-2,6-diazaspiro[3.4]octan-2-yl)-2-propane-1-one]
				281	3310	> 5000	C=CC(=O)N1CC2(CCN(c3nc4c(c(-c5cccc(C)c5C)n3)CC[C@@H](c3nccs3)C4)C2)C1 (racemic) [Example 22-3, 1-(6-((7R)-4-(2,3-dimethylphenyl)-7-(1,3-thiazol-2-yl)-5,6,7,8-tetrahydro-2-quinazolinyl)-2,6-diazaspiro[3.4]octan-2-yl)-2-propen-1-one|1-(6-((7S)-4-(2,3-dimethylphenyl)-7-(1,3-thiazol-2-yl)-5,6,7,8-tetrahydro-2-quinazolinyl)-2,6-diazaspiro[3.4]octan-2-yl)-2-propen-1-one]
